From US20210322327A1, “EXTRACELLULAR VESICLES COMPRISING STING-AGONIST” (Codiak BioSciences, Inc., priority 2018, published 2021)

Columns and labels:
[1] = Plasma pharmacokinetics after intravenous injection; assay type: in vivo, C57BL/6 mice; conditions: 20 μg free
Procedure: To examine the pharmacokinetics of STING agonist in mouse plasma, naïve C57BL/6 mice were injected intravenously with 20 μg of free 3-3 cAIMPdFSH, or 0.1 μg, 0.3 μg, 0.6 μg 3-3 cAIMPdFSH loaded in PTGFRN-overexpressing exosomes. One, five, ten, and thirty minutes injection, blood was taken, and plasma were prepared. The concentration of 3-3 cAIMPdFSH was measured by LC-MS/MS, as described in Example 1.

STING pathway = STING pathway activation after intraperitoneal or intratumoral dose in B16F10 tumor-bearing mice; assay type: in vivo, C57BL/6 mice; conditions: 20 μg single IP dose
Procedure: Five groups of C57BL/6 mice (n=4 mice per group) were inoculated subcutaneously with 5×10^5 B16F10 murine melanoma cells. Eight days post-inoculation the mice were injected intraperitoneally (IP) with a single dose of either PBS, 20 μg ML RR-S2, 0.2 μg ML RR-S2, 0.2 μg ML RR-S2 loaded in PTGFRN-overexpressing exosomes (Exo STING IP), or intratumorally (IT) with a single dose of 0.2 μg ML RR-S2 loaded in PTGFRN-overexpressing exosomes (Exo STING IT). The exosome-encapsulated STING agonist formulations were loaded and quantitated as described in Example 1.

A20 lymphoma cells [2] = assay: CIVO intratumoral microinjection, IFNβ mRNA by in situ hybridization; assay type: in vivo, BALB/cAnNHsd mice; conditions: high dose free (printed 2 g), four hours post-injection
Procedure: (§1) All experiments in mice were approved by IACUC Board of Presage Biosciences, Seattle, Wash. (Protocol number PR-001) and were performed at Presage in accordance with relevant guidelines and regulations. All relevant procedures were performed under anesthesia and all efforts were made to minimize pain and suffering. Female BALB/cAnNHsd mice (Envigo) with an average weight of 18 gm were used for experiments at 5-7 weeks of age. For generating A20 allografts, mice were inoculated with 1 million A20 cells in 100 μl inoculation volume.
(§2) CIVO intra-tumoral microinjections were performed as described in Klinghoffer et al. (2016) Science Translational Medicine. Briefly, mice (n=6 per time point, 4 and 24 hours) were enrolled in microinjection studies when implanted tumors reached the following approximate dimensions: 14 mm (length), 10 mm (width) and 7 mm (depth). […]
(§3) Images of every cell from each tissue section stained were captured by digital, automated, high-resolution whole-tissue scanning (3D Histech Panoramic 250 Flash). Tumor responses were quantified from image files from each tissue section using Presage's custom CIVO Analyzer image analysis platform. […] In order to mitigate the influence of pre-existing necrosis on biomarker measurements, injection sites that fall within largely acellular tumor regions are excluded prior to quantitative analysis. […]

A20 lymphoma cells [3] = assay: CIVO intratumoral microinjection, cleaved caspase 3 staining; assay type: in vivo, BALB/cAnNHsd mice
Procedure: as §1, §2, §3

[4] = tested on: peritoneal cells and splenocytes; assay: Immune cell activation (CD86) in peritoneum and spleen 24 hours after intraperitoneal dose; assay type: in vivo, C57BL/6 mice; conditions: 20 μg single IP dose
Procedure: A second experiment similar to the previous study was carried out with single-dose IP administration, and extended to 24 hours. Peritoneal cells and splenocytes were isolated from treated mice, and cell activation was measured by detection of CD86.

E.G7-OVA cells = assay: E.G7-OVA T-cell lymphoma tumor growth, intratumoral injection; assay type: in vivo, C57BL/6 mice
Procedure: To test this hypothesis, C57BL/6 mice were inoculated subcutaneously with 1×10^6 E.G7-OVA cells (ATCC®; CRL-2113™), a murine T-cell lymphoma cell line engineered to stably express OVA and allow for modeling antigen-specific T-cell responses in mice (n=5 mice per group). Ten, 13, and 16 days post-inoculation the mice were injected intratumorally with PBS, 20 μg ML RR-S2, 0.2 μg ML RR-S2, or 0.2 μg ML RR-S2 loaded in PTGFRN-overexpressing exosomes). […] Splenic T-cells from all groups were isolated and measured for OVA-specific reactivity as described in Example 11.

| Compound | half-life in plasma [1] | IFNβ expression in tumor, pancreas and spleen (STING pathway) | IFNβ mRNA levels (A20 lymphoma cells [2]) | cleaved caspase 3 (CC3) (A20 lymphoma cells [3]; high dose free (printed 2 g), four and 24 hours) | cleaved caspase 3 (CC3) (A20 lymphoma cells [3]; low dose free (printed 200 ng)) | peritoneal cell activation (CD86) [4] | spleen immune cell activation (CD86) [4] | tumor growth compared to PBS (E.G7-OVA cells; 0.2 μg intratumoral days 10, 13, 16) | tumor growth compared to PBS (E.G7-OVA cells; 20 μg intratumoral days 10, 13, 16) |
| --- | --- | --- | --- | --- | --- | --- | --- | --- | --- |
| Nc1ncnc2c1ncn2[C@@H]1O[C@@H]2COP(=O)(S)O[C@H]3[C@@H](F)[C@H](n4cnc5c(=O)[nH]cnc54)O[C@@H]3COP(O)(=S)O[C@H]2[C@H]1F (stereo partly drawn) [3-3 cAIMPdFSH, 3′3′-cAIMPdFSH] | 1.2 min | – | – | – | – | – | – | – | – |
| Nc1ncnc2c1ncn2[C@@H]1O[C@@H]2COP(O)(=S)O[C@@H]3C(O)[C@@H](COP(O)(=S)O[C@H]2[C@H]1O)O[C@H]3n1cnc2c(N)ncnc21 (stereo partly drawn) [ML RR-S2 CDA] | – | induced IFNβ expression in the tumor, pancreas, and spleen above the PBS-treated group | comparable between the high dose STING agonist and the PTGFRN O/E EXOSTING™ groups | dramatically increased at four and 24 hours | modest | activation of peritoneal B cells, macrophages, monocytes and conventional dendritic cells (cDCs) | moderate levels of immune cell activation | moderately attenuated tumor growth | dramatically prevented tumor growth |
